We go through 26 molecules from patent publication US9394285B2 (Pfizer Inc., priority 2013, dated 2016).

Broadly, the EC50 is the midpoint of the concentration-response curve. Lower therefore signals an effect from little substance.

In the test the target is human AMPK (full-length γ1, β1 and α1 subunits) (Homo sapiens (Human), UniProt Q13131+Q9Y478). The test can be described thus: AMPK in vitro biochemical assay (33P-based, SAMS peptide, PP2A dephosphorylation). The settings on record: for EC50: activation of phosphorylated AMPK, 33P-ATP, SAMS peptide, PP2A treatment, 4-parameter fit; for Emax: counts as % of positive control wells (enzyme, allosteric activator or AMP, PP2A and substrate), read-out: Maximum. In a few lines: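 Phosphorylated full-length α1β1γ1 AMPK (E. coli-expressed, His-purified, gel-filtered) preincubated 15 min RT with compound in HEPES pH 7.5, 10 mM MgCl2 buffer, then PP2A added to dephosphorylate pThr172.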

SMILES strings stand for the structures.

human AMPK (full-length γ1, β1 and α1 subunits), sequence (Q13131 whole entry): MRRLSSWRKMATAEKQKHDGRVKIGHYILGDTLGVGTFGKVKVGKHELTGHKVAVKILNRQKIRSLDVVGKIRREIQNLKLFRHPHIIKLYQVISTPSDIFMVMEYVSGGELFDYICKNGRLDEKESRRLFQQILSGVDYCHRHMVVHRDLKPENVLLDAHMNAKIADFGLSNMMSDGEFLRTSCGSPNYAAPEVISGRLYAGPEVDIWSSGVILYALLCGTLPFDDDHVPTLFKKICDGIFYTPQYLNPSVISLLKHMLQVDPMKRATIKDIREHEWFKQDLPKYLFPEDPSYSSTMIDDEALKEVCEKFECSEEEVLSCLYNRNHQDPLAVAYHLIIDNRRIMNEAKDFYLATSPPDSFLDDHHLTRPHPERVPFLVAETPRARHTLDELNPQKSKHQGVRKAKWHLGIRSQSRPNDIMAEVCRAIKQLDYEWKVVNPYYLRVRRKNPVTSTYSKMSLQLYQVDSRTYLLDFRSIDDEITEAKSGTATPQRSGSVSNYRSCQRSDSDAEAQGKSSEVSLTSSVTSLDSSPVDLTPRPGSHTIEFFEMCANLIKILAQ
human AMPK (full-length γ1, β1 and α1 subunits), sequence (Q9Y478 whole entry): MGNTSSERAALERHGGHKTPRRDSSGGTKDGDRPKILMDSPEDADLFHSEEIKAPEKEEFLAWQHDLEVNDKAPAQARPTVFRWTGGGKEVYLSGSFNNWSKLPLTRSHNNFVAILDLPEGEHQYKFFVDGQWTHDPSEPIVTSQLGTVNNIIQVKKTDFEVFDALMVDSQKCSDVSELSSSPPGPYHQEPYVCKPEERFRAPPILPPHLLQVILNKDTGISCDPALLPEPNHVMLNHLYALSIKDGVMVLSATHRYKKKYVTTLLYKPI
human AMPK (full-length γ1, β1 and α1 subunits), sequence (P54619 whole entry partner): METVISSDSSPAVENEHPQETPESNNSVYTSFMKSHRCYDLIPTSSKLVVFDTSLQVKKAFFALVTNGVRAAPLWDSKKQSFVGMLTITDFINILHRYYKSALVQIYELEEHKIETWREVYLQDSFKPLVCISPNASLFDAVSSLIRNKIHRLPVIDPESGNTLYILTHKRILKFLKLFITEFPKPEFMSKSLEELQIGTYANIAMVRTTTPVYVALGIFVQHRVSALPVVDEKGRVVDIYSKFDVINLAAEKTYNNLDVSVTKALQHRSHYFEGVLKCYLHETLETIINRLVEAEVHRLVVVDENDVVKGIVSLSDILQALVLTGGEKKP

Take `COc1cc(-c2cc3c(C(=O)O)c[nH]c3cc2Cl)ccc1C1(O)COC1` [Example 60, 6-chloro-5-[4-(3-hydroxyoxetan-3-yl)-3-methoxyphenyl]-1H-indole-3-carboxylic acid]: a half-maximal effect (EC50) was put at 7.8 nM and the Emax is 65%.
As to `COc1cc(-c2cc3c(C(=O)O)c[nH]c3cc2Cl)ccc1C1(O)CCC1` [Example 61, 6-chloro-5-[4-(1-hydroxycyclobutyl)-3-methoxyphenyl]-1H-indole-3-carboxylic acid], the concentration for a half-maximal effect (EC50) stood at 2.3 nM and the Emax came to 57%.
Taken in the same sequence, the figures for `COc1cc(C2(O)CCC2)ccc1-c1cc2c(C(=O)O)c[nH]c2cc1Cl` [Example 62, 6-chloro-5-[4-(1-hydroxycyclobutyl)-2-methoxyphenyl]-1H-indole-3-carboxylic acid] were 33.3 nM and 74%.
For `O=C(O)c1c[nH]c2cc(Cl)c(-c3ccc(C4CCN4)cc3)cc12` (stereo not shown) [Example 63, 5-(4-azetidin-2-yl-phenyl)-6-chloro-1H-indole-3-carboxylic acid] the same measures were 432 nM and 89%.
`O=C(O)c1c[nH]c2cc(Cl)c(-c3ccc(N4CCCC4=O)cc3)cc12` [Example 64, 6-chloro-5-[4-(2-oxopyrrolidin-1-yl)phenyl]-1H-indole-3-carboxylic acid]: the EC50 stood at 169 nM and the Emax came out at 82%.
Consider `CC(=O)N1CCC(c2ccc(-c3cc4c(C(=O)O)c[nH]c4cc3Cl)cc2)CC1` [Example 65, 5-[4-(1-acetylpiperidin-4-yl)phenyl]-6-chloro-1H-indole-3-carboxylic acid], for which the EC50 is 135 nM and the Emax was 103%.
For `O=C(O)c1c[nH]c2cc(Cl)c(-c3ccc(-c4ccccc4O)cc3)cc12` [Example 67, 6-chloro-5-(2′-hydroxybiphenyl-4-yl)-1H-indole-3-carboxylic acid] the same measures were 2.4 nM and 112%.
For `O=C(O)c1c[nH]c2cc(Br)c(-c3ccc(-c4ccccc4O)cc3)cc12` [Example 68, 6-Bromo-5-(2′-hydroxybiphenyl-4-yl)-1H-indole-3-carboxylic acid] the same measures were 4.3 nM and 117%.
In the case of `N#Cc1cc(C2(O)CCC2)ccc1-c1cc2c(C(=O)O)c[nH]c2cc1Cl` [Example 69, 6-chloro-5-[2-cyano-4-(1-hydroxycyclobutyl)phenyl]-1H-indole-3-carboxylic acid], the half-maximal effective concentration (EC50) worked out at 264 nM and the Emax was determined as 74%.
For the molecule `NC(=O)COc1ccc(-c2cc3c(C(=O)O)c[nH]c3cc2Cl)cc1` [Example 70, 5-[4-(2-amino-2-oxoethoxy)phenyl]-6-chloro-1H-indole-3-carboxylic acid], the midpoint of the response, the EC50, lay at 77.5 nM and the Emax was determined as 106%.
Taken in the same sequence, the figures for `O=C(O)c1c[nH]c2cc(Cl)c(-c3ccc(CCO)cc3)cc12` [Example 71, 6-chloro-5-[4-(2-hydroxyethyl)phenyl]-1H-indole-3-carboxylic acid] were 14 nM and 75%.
In the case of `O=C(O)c1c[nH]c2cc(Cl)c(-c3ccc(C4(CO)CCC4)cc3)cc12` [Example 72, 6-chloro-5-{4-[1-(hydroxymethyl)cyclobutyl]phenyl}-1H-indole-3-carboxylic acid], the response was half-maximal at 4.3 nM (EC50) and the Emax was 107%.
Taken in the same sequence, the figures for `CN(C)c1ncc(-c2cc3c(C(=O)O)c[nH]c3cc2Cl)cn1` [Example 73, 6-chloro-5-[2-(dimethylamino)pyrimidin-5-yl]-1H-indole-3-carboxylic acid] were 790 nM and 118%.
For `CN1CCC(c2ccc(-c3cc4c(C(=O)O)c[nH]c4cc3Cl)cc2)C1` (stereo not shown) [Example 74, 6-chloro-5-[4-(1-methylpyrrolidin-3-yl)phenyl]-1H-indole-3-carboxylic acid] the same measures were 44.3 nM and 110%.
Take `O=C(O)c1c[nH]c2cc(Cl)c(-c3ccc(C4(CO)CC4)cc3)cc12` [Example 75, 6-chloro-5-{4-[1-(hydroxymethyl)cyclopropyl]phenyl}-1H-indole-3-carboxylic acid]: the EC50 turned out to be 0.5 nM and the Emax worked out at 91%.
For `O=C(O)c1c[nH]c2cc(Cl)c(-c3cnc(N4CCOCC4)nc3)cc12` [Example 76, 6-chloro-5-[2-(morpholin-4-yl)pyrimidin-5-yl]-1H-indole-3-carboxylic acid] the same measures were 271 nM and 104%.
Taken in the same sequence, the figures for `O=C(O)c1c[nH]c2cc(Cl)c(-c3ccc(CC(=O)N4CCOCC4)cc3)cc12` [Example 77, 6-chloro-5-{4-[2-(morpholin-4-yl)-2-oxoethyl]phenyl}-1H-indole-3-carboxylic acid] were 207 nM and 89%.
Taken in the same sequence, the figures for `O=C(O)c1c[nH]c2cc(Cl)c(-c3ccc(C4(C(=O)O)CCC4)cc3)cc12` [Example 78, 5-[4-(1-carboxycyclobutyl)phenyl]-6-chloro-1H-indole-3-carboxylic acid] were 2000 nM and 68%.
Turning to `O=C1COC(c2ccc(-c3cc4c(C(=O)O)c[nH]c4cc3Cl)cc2)CN1` (stereo not shown) [Example 79, 6-chloro-5-[4-(5-oxomorpholin-2-yl)phenyl]-1H-indole-3-carboxylic acid], a half-maximal effect (EC50) was put at 104 nM and the Emax was 102%.
Regarding `O=C(O)c1c[nH]c2cc(Cl)c(-c3ccc(CCCO)cc3)cc12` [Example 80, 6-chloro-5-[4-(3-hydroxypropyl)phenyl]-1H-indole-3-carboxylic acid], the EC50 stood at 182 nM and the Emax was determined as 108%.
Turning to `O=C(O)c1c[nH]c2cc(Cl)c(-c3ccc(OCCO)c(F)c3)cc12` [Example 81, 6-chloro-5-[3-fluoro-4-(2-hydroxyethoxy)phenyl]-1H-indole-3-carboxylic acid], the EC50 is 182 nM and the Emax is 97%.
As for `CNC(=O)COc1ccc(-c2cc3c(C(=O)O)c[nH]c3cc2Cl)cc1` [Example 82, 6-chloro-5-{4-[2-(methylamino)-2-oxoethoxy]phenyl}-1H-indole-3-carboxylic acid], the midpoint of the response, the EC50, lay at 216 nM and the Emax was found to be 86%.
Taken in the same sequence, the figures for `O=C(O)c1c[nH]c2cc(Cl)c(-c3ccc(C4CCCN4)cc3)cc12` (stereo not shown) [Example 83, 6-chloro-5-[4-(pyrrolidin-2-yl)phenyl]-1H-indole-3-carboxylic acid] were 819 nM and 108%.
For `CS(=O)(=O)N1CCCC1c1ccc(-c2cc3c(C(=O)O)c[nH]c3cc2Cl)cc1` (stereo not shown) [Example 84, 6-chloro-5-{4-[1-(methylsulfonyl)pyrrolidin-2-yl]phenyl}-1H-indole-3-carboxylic acid] the same measures were 344 nM and 72%.
As for `O=C(O)c1c[nH]c2cc(Cl)c(-c3ccc(OCCO)cc3F)cc12` [Example 86, 6-chloro-5-[2-fluoro-4-(2-hydroxyethoxy)phenyl]-1H-indole-3-carboxylic acid], the EC50 was determined as 99.2 nM and the Emax came to 99%.
In the case of `O=C(O)c1c[nH]c2cc(Cl)c(-c3ccc4c(c3)OC[C@@H](CO)O4)cc12` [Example 87, 6-chloro-5-[(2R)-2-(hydroxymethyl)-2,3-dihydro-1,4-benzodioxin-6-yl]-1H-indole-3-carboxylic acid], the EC50 is 69.5 nM and the Emax stood at 112%.
